Patent US8394770B2 (priority 2007, dated 2013)
Where “and” joins values, the source holds several entries; their conditions need not be identical. Identical values can stand only once. Entries after “also recorded” stand apart in the source; their conditions may differ.

How the values were obtained:
hKv1.5 = hKv1.5 (Homo sapiens, UniProt P22460); assay: Patch-clamp block of hKv1.5 channels stably expressed in MEL cells; conditions: 10 nM
mKv1.1 = mKv1.1 (Mus musculus, UniProt P16388); assay: Patch-clamp block of mKv1.1 channels stably expressed in L929 cells; conditions: for remaining current fraction (RCF) mKv1.1: n=3
hKv1.2 = hKv1.2 (Homo sapiens, UniProt P16389); assay: Patch-clamp block of hKv1.2 channels expressed in Cos-7 cells; conditions: for remaining current fraction (RCF) hKv1.2: n=3
hKv1.4 = hKv1.4 (Homo sapiens, UniProt P22459); assay: Patch-clamp block of fast inactivation-removed hKv1.4 (Kv1.4ΔN) channels in Cos-7 cells; conditions: 10 nM
hNaV1.5 = hNaV1.5 (Homo sapiens, UniProt Q14524); assay: Patch-clamp block of cardiac voltage-gated Na+ channel NaV1.5 expressed in Cos-7 cells; conditions: 10 nM
rats = assay: Delayed-type hypersensitivity (DTH) response in DNFB-sensitized rats, ear thickness; assay type: in vivo, rat; conditions: single dose of 10 micrograms, 24 hours
From the text: In order to perform this kind of experiment we set up a protocol to study DTH response in rats. The system used is basically that described by Phanuphak et al., 1974. In brief, two groups of rats (3 or 5 animals each) were sensitized by applications of 40 microliters of 0.7% DNFB in 4:1 proportion of acetone: olive oil solution, in two consecutive days (days one and two), after gentle shaving of the dorsal-back region of the animals. After 7 days of the second application of the sensitizing solution, the animals were challenged by a single application of 20 microliter of 0.4% DNFB dissolved in the acetone: olive oil solution described above. This solution was spread over the dorsal surface of the right-side ears and allowed to dry, whereas the left-side ears were spread with only the vehicle solution (acetone:olive oil). On day eight of the protocol, a subcutaneous injection of 100 microliter of phosphate saline buffer pH 7.8 (PBS) was applied to each one of the animals used as control, whereas to the experimental group of rats, an amount of 10 micrograms pure Vm24 in 100 microliters PBS was subcutaneously applied. The thickness of both ears of all animals was measured 24 hours after of the application of Vm24.

rKv2.1 = target: T1, rKv2.1 (Rattus norvegicus, UniProt P15387); assay: Patch-clamp block of rKv2.1 channels expressed in Cos-7 cells; conditions: 10 nM
T1 sequence (P15387 1-857): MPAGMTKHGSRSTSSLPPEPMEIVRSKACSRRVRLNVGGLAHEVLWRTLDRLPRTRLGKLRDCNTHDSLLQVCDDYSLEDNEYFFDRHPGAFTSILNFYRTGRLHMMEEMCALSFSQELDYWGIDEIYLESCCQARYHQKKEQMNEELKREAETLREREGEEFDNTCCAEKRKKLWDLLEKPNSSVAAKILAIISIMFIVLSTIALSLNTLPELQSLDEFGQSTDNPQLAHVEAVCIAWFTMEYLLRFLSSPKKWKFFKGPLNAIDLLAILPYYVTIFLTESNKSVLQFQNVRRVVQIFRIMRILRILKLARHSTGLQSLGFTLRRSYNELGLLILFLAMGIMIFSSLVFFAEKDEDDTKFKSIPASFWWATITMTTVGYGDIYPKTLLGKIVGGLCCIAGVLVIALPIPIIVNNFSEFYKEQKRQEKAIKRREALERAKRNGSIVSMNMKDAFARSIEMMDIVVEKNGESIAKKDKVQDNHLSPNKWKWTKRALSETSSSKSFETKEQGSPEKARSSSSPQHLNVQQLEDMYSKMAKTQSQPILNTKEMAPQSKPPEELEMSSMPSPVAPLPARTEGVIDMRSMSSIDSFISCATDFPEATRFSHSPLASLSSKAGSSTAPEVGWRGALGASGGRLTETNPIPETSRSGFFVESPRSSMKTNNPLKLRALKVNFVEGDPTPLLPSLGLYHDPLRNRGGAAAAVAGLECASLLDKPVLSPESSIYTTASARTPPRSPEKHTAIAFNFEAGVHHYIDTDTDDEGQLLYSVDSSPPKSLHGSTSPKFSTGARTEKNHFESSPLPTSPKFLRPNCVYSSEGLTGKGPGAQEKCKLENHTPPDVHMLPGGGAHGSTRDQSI

mice = assay: In vivo toxicity / lethality test by injection into mice; conditions: injected
hBK (KCa1.1) = hBK (KCa1.1) (Homo sapiens, UniProt Q12791); assay: Patch-clamp block of hBK (KCa1.1) channels expressed in tsA-201 cells; conditions: 10 nM
hKv1.3 channels = hKv1.3 channels (Homo sapiens, UniProt P22001); assay: Whole-cell patch-clamp block of hKv1.3 channels endogenously expressed in human peripheral blood T cells; assay type: cell-based; design: channels expressed endogenously in human peripheral blood T cells; endogenous in cells; host or cells: human peripheral blood T lymphocytes from healthy volunteers, PHA-stimulated
hERG channel = hERG channel (Homo sapiens, UniProt Q12809); assay: Patch-clamp block of hERG channels stably expressed in HEK-293 cells; conditions: 10 nM
hIKCa1 = hIKCa1 (Homo sapiens, UniProt O15554); assay: Patch-clamp block of recombinant hIKCa1 channels expressed in Cos-7 cells (voltage ramps)
hIKCa1, sequence (O15554 whole entry): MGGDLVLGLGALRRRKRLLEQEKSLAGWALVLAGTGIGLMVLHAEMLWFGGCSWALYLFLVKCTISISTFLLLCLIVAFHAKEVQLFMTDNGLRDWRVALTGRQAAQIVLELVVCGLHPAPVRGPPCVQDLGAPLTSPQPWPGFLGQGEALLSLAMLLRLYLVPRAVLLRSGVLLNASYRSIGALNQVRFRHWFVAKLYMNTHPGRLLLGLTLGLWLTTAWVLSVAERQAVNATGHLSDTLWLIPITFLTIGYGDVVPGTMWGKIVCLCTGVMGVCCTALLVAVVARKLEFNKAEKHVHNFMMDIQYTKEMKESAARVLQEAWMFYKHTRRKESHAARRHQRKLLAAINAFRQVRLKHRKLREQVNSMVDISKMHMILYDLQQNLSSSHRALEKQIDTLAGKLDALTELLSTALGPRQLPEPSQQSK

hKv1.2, sequence (P16389 whole entry): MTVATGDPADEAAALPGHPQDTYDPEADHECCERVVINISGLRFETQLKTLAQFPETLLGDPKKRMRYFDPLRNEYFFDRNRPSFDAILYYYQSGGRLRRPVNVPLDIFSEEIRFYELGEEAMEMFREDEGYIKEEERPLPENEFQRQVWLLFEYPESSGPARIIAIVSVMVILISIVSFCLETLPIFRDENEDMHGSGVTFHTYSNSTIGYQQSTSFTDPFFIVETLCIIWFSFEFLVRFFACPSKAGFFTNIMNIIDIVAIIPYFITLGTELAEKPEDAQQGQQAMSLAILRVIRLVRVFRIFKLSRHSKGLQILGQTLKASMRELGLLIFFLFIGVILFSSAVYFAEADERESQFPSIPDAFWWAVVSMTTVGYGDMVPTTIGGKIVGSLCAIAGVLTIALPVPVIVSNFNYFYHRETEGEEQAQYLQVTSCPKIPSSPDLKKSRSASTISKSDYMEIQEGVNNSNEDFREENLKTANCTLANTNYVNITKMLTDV
hKv1.3 channels, sequence (P22001 whole entry): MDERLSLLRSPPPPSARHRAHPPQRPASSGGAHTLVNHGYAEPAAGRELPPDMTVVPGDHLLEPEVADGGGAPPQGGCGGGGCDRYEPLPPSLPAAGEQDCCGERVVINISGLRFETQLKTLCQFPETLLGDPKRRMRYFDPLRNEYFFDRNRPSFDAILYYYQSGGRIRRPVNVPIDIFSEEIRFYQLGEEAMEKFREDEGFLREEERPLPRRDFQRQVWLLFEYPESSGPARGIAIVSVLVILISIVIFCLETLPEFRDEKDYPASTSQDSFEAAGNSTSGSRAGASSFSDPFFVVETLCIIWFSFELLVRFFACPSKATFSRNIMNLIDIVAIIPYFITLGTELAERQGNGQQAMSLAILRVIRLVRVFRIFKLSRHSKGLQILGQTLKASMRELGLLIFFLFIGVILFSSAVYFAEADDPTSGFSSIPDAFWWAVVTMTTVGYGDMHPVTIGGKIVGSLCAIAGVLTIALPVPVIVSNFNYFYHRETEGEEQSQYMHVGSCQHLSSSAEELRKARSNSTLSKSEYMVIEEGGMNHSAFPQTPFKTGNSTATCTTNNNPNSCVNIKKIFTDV
mKv1.1, sequence (P16388 whole entry): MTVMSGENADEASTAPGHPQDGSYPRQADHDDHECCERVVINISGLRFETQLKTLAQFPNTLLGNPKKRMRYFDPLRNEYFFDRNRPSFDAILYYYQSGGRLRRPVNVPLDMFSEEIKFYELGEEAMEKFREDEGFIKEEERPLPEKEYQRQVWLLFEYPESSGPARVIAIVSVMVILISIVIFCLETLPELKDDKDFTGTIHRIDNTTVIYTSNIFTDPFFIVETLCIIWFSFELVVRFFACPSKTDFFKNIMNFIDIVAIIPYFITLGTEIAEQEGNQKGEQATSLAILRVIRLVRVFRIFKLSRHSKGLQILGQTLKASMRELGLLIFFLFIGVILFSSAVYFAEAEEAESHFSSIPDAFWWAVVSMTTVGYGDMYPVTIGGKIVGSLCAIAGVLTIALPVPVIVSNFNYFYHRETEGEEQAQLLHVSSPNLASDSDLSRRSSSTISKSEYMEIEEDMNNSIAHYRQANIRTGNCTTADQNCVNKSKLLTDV
hKv1.4, sequence (P22459 148-653): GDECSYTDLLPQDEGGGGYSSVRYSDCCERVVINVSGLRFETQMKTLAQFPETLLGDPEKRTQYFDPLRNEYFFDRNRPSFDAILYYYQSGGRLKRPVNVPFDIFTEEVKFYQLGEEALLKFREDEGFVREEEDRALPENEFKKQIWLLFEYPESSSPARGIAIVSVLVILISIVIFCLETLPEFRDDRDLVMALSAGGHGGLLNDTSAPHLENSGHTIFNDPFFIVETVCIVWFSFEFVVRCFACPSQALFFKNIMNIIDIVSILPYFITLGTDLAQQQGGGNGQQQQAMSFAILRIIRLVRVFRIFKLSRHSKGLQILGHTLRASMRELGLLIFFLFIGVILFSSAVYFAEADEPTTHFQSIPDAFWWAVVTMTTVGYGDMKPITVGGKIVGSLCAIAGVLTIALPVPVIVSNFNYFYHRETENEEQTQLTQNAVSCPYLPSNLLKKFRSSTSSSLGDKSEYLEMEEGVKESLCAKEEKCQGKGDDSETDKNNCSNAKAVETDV
hKv1.5, sequence (P22460 whole entry): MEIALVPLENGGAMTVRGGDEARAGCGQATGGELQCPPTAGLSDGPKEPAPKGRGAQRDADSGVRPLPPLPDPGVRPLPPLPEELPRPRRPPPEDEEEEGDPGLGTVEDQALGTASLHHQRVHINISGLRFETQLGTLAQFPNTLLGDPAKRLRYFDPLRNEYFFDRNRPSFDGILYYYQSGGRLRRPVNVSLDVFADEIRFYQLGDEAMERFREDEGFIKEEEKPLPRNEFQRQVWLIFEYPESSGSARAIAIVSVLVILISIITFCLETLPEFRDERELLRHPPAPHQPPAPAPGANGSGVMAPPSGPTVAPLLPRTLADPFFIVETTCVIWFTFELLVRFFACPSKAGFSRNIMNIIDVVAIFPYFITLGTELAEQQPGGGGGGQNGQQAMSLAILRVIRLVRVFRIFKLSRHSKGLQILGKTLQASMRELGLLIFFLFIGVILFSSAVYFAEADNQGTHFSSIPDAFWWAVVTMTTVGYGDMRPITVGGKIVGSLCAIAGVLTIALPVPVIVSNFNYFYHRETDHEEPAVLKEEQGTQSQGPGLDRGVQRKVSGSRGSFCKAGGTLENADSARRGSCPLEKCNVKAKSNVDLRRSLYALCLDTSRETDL
hBK (KCa1.1), sequence (Q12791 1-1178 isoform Q12791-5): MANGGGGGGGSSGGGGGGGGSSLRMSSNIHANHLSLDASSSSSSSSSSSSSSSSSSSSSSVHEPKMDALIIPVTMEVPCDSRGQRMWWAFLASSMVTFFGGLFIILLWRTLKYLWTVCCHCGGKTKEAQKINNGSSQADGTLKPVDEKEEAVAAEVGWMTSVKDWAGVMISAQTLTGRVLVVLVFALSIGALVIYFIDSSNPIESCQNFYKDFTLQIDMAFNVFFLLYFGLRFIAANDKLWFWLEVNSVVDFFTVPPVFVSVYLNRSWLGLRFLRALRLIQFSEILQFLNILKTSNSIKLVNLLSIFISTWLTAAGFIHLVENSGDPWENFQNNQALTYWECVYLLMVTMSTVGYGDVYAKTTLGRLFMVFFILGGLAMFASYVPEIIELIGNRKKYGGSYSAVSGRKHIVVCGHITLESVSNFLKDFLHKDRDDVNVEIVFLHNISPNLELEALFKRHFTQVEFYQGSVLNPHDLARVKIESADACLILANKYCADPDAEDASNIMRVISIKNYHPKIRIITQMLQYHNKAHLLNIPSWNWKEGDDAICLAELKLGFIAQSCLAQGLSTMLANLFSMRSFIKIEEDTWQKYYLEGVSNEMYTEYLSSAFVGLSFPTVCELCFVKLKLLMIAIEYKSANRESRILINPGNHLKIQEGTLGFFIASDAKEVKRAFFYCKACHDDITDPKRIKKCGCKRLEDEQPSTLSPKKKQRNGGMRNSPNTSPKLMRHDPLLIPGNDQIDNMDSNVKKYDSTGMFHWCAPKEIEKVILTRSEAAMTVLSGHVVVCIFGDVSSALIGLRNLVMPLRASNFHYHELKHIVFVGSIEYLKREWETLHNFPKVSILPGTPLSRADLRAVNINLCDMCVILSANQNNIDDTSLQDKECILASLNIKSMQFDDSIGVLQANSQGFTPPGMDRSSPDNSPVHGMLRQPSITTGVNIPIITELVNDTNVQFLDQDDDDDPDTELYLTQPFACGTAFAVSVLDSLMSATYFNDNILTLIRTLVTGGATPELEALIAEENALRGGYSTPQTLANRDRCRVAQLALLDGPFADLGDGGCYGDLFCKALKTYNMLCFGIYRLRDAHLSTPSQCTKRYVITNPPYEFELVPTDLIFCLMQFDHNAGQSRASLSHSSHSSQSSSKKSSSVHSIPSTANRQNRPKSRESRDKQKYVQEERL

SMILES: CC[C@H](C)[C@H](NC(=O)[C@H](C)NC(=O)[C@H](C)NC(=O)[C@H](C)N)C(=O)N[C@@H](CO)C(=O)N[C@H]1CSSC[C@@H]2NC(=O)[C@H](CCCCN)NC(=O)CNC(=O)[C@H](CC(N)=O)NC(=O)[C@H](CCCCN)NC(=O)[C@@H]3CSSC[C@@H](C(N)=O)NC(=O)[C@H](Cc4ccc(O)cc4)NC(=O)[C@H](Cc4ccc(O)cc4)NC(=O)[C@@H]4CSSC[C@H](NC(=O)[C@H](CCCCN)NC(=O)[C@@H]5CCCN5C(=O)[C@@H]5CCCN5C(=O)[C@H](CSSC[C@H](NC(=O)[C@H](CCCCN)NC(=O)[C@H](CCCNC(=N)N)NC(=O)[C@H](CC(N)=O)NC(=O)[C@H](CCSC)NC2=O)C(=O)N[C@@H](CCCCN)C(=O)N4)NC(=O)[C@H](CCC(=O)O)NC(=O)[C@@H]2CCCN2C(=O)[C@H](CO)NC(=O)CNC(=O)[C@H](C(C)C)NC1=O)C(=O)N[C@@H](CCCNC(=N)N)C(=O)N[C@@H](C)C(=O)N[C@@H](CCC(N)=O)C(=O)NCC(=O)N3 [Vm24]
- effect on hKv1.5 current (hKv1.5): practically insensitive; also recorded: does not modify
- Kd (mKv1.1): 30 to 40 nM
- selectivity for hKv1.3 over mKv1.1 (mKv1.1): ≥ 10000 fold
- remaining current fraction (RCF) mKv1.1 (mKv1.1; 1 nM): 0.97±0.02
- time for equilibrium block of mKv1.1 to develop (mKv1.1; 10 nM): 6 min
- remaining current fraction (RCF) mKv1.1 (mKv1.1; 10 nM): 0.80±0.02
- inhibition at 0.01 µM (mKv1.1; L929, read-out: current inhibition mKv1.1): 20 to 50%
- Kd (hKv1.2): 5 to 10 nM
- selectivity for hKv1.3 over hKv1.2 (hKv1.2): ≥ 1500 fold
- remaining current fraction (RCF) hKv1.2 (hKv1.2; 1 nM): 0.81±0.015
- time for equilibrium block of hKv1.2 to develop (hKv1.2; 10 nM): 5.5 min
- remaining current fraction (RCF) hKv1.2 (hKv1.2; 10 nM): 0.54±0.08
- reversibility of hKv1.2 block (hKv1.2; after 10 nM, wash-out): not fully reversible
- effect on hKv1.4 current (hKv1.4): practically insensitive; also recorded: does not modify
- effect on NaV1.5 current (hNaV1.5): lack of blockade; also recorded: does not modify
- inflammation of the ear (thickness, unchallenged ear subtracted) (rats): no more than 0.10 mm
- effect on rKv2.1 current (rKv2.1): lack of blockade; also recorded: does not modify
- toxicity / symptoms of intoxication in mice (mice; up to 200 microgram per mouse of 20 grams (10,000 microgram/kilogram)): not toxic; also recorded: no observable symptoms of intoxication
- toxicity in experimental animals (mice; up to 10,000 microgram per 20 gram mouse weight (so in the source)): not toxic
- effect on hBK current (hBK (KCa1.1)): lack of blockade; also recorded: does not modify
- block of hKv1.3 current (hKv1.3 channels; 3 pM): over 50%
- level at which loss of current saturates, % of the peak recorded in control solution (hKv1.3 channels; 3 pM, 10.5-minute application): ~36%
- block of hKv1.3 current (words) (hKv1.3 channels; 0.3 nM): full block
- block of hKv1.3 current (words) (hKv1.3 channels; 1 nM): completely disappeared; also recorded: full block; also recorded: blocks hKv1.3 channels completely; also recorded: almost completely blocked
- blockage of hKv1.3 current (hKv1.3 channels; 10 nM): 100%
- time for equilibrium block of hKv1.3 to develop (hKv1.3 channels; 10 nM): 3.5 min
- remaining current fraction (RCF) hKv1.3 (hKv1.3 channels; 10 nM, mean±SEM, n=3): 0.01±0.01
- fraction of blocked hKv1.3 current recovered (hKv1.3 channels; 30 minute washout after 3 pM): one third
- Hill coefficient n (hKv1.3 channels; dose-response fit, hKv1.3): ~1
- Kd (hKv1.3 channels; fit of dose-response of remaining current fraction, human T cells, stated to be an overestimate of the real Kd, read-out: Kd (dissociation constant) for hKv1.3): 2.9 pM and < 3 pM
- off rate (hKv1.3 channels; from wash-out time constant after 3 pM): ~0.00026 s⁻¹
- effect on hERG current (hERG channel): lack of blockade; also recorded: does not modify
- Kd (hIKCa1): ~14 nM
- selectivity for hKv1.3 over hIKCa1 (hIKCa1): ≥ 4500 fold
- block of hIKCa1 (hIKCa1; 1 nM): practically does not blocks
- time to reach equilibrium block of hIKCa1 (hIKCa1; 10 nM): 4.5 min
- inhibition at 0.01 µM (hIKCa1; COS-7, read-out: current inhibition hIKCa1, 10 nM): ~40%
- remaining activity at 0.01 µM (hIKCa1; COS-7, read-out: slope s of current-voltage relationship, % of control): ~52%
- reversal of hIKCa1 block on wash-out (hIKCa1; after 10 nM, in 2.5 min toxin-free solution): fully reversed
